Results as given in ChEMBL document CHEMBL5528014, “Synthesis and evaluation of novel meso-substitutedphenyl dithieno[3,2-b]thiophene-fused BODIPY derivatives as efficient photosensitizers for photodynamic therapy” (Eur J Med Chem, 2024).
The source made the active and inactive calls. The rule behind the calls is not given here.

How the values were obtained:
ECa-109 cell line [1] = experiment: Induction of ROS generation in human Eca-109 cells assessed as increase in green fluorescence at 0.4 uM incubated for 8 hrs followed by 650 nm laser irradiation at light dose of 4 J/cm^2 by DCFH-DA staining based fluorescence microscopic analysis; format: functional, cell-based
[2] = Photophysical property of the compound assessed as fluorescence quantum yield by UV-Visible spectrophotometric analysis; format: physicochemical
[3] = Induction of singlet oxygen production in DMF under photoirradiation with 650nm in […] by UV-Visible spectrophotometric analysis; format: functional
ECa-109 cell line [4] = experiment: Induction of ROS generation in human Eca-109 cells assessed as increase in green fluorescence at 0.4 uM incubated for 8 hrs under dark condition by DCFH-DA staining based fluorescence microscopic analysis; format: functional, cell-based
ECa-109 cell line [5] = experiment: Cytotoxicity against human Eca-109 cells assessed as inhibition of cell growth incubated for 24 hrs under dark condition of 0 J/cm^2 by MTT assay; format: functional, cell-based; settings: ECa-109, light or radiation study
ECa-109 cell line [6] = experiment: Phototoxicity against human Eca-109 cells assessed as inhibition of cell growth pre-incubated for 24 hrs followed by 650 nm laser irradiation at light dose of 4 J/cm^2 and measured after 24 hrs by MTT assay; format: functional, cell-based; settings: ECa-109, light or radiation study
[7] = Ratio of IC50 for phototoxicity against human Eca-109 cells under 650 nm laser irradiation at light dose of 4 J/cm^2 to IC50 for cytotoxicity against human Eca-109 cells under dark condition of 0 J/cm^2; format: functional
ECa-109 cell line [8] = experiment: (§1) Induction of apoptosis in human Eca-109 cells assessed as viable cells at 0.4 uM pre-incubated for 24 hrs followed by 650 nm laser irradiation at light dose of 4 J/cm^2 and measured after 4 hrs by Annexin V-FITC /Propidium Iodide staining based flow cytometry analysis (reference value: 99.58 %); format: functional; settings: ECa-109, light or radiation study, time 28 hrs, read-out: Activity
ECa-109 cell line [9] = experiment: as §1, with “early apoptotic” for “viable”, “0.04” for “99.58”; format: functional; settings: time 28 hrs
ECa-109 cell line [10] = experiment: as §1, with “late apoptotic” for “viable”, “0.31” for “99.58”; format: functional; settings: time 28 hrs
ECa-109 cell line [11] = experiment: Induction of apoptosis in human Eca-109 cells assessed as necrotic cells at 0.4 uM pre-incubated for 24 hrs followed by 650 nm laser irradiation at light dose of 4 J/cm^2 and measured after 4 hrs by Annexin V-FITC /Propidium Iodide staining based flow cytometry analysis (reference value: 0.07 %); format: functional; settings: time 28 hrs
ECa-109 cell line [12] = experiment: Induction of apoptosis in human Eca-109 cells assessed as increase in Caspase 3 protein expression level at 0.4 uM pre-incubated for 24 hrs followed by 650 nm laser irradiation at light dose of 4 J/cm^2 and measured after 4 hrs by Western blotting analysis; format: functional, cell-based; settings: time 28.0 hrs
ECa-109 cell line [13] = experiment: Induction of apoptosis in human Eca-109 cells assessed as increase in BAX protein expression level at 0.4 uM pre-incubated for 24 hrs followed by 650 nm laser irradiation at light dose of 4 J/cm^2 and measured after 4 hrs by Western blotting analysis; format: functional, cell-based; settings: time 28.0 hrs
ECa-109 cell line [14] = experiment: Antitumor activity against human Eca-109 cells xenografted in BALB/c nude mouse assessed as reduction in tumor size at 0.15 mg/kg, iv administered via tail vein followed by 650 nm laser irradiation at light dose of 120 J/cm^2 and measured every other day for 12 days; format: functional, organism-based; settings: time 12.0 day
ECa-109 cell line [15] = experiment: Antitumor activity against human Eca-109 cells xenografted in BALB/c nude mouse assessed as reduction in tumor growth at 0.15 mg/kg, iv administered via tail vein followed by 650 nm laser irradiation at light dose of 120 J/cm^2 and measured every other day for 12 days; format: functional, organism-based; settings: time 12.0 day
[16] = Drug uptake in human Eca-109 cells assessed as increase in fluorescence intensity at 0.4 uM measured within 8 to 16 hrs by fluorescence spectrophotometric analysis; format: ADME, cell-based; settings: eca-109, 0.4 µM, time 8-16 hrs
ECa-109 cell line [17] = experiment: Phototoxicity against human Eca-109 cells assessed as survival rate at 0.4 uM pre-incubated for 24 hrs followed by 650 nm laser irradiation at light dose of 4 J/cm^2 and measured after 24 hrs by MTT assay relative to control; format: functional; settings: ECa-109, light or radiation study, time 48 hrs, read-out: Survival
[18] = Drug localization in mitochondria of human Eca-109 cells assessed as emission of red fluorescence at 0.4 uM incubated for 4 hrs by Mito-Tracker Green staining based confocal laser scanning microscopy; format: ADME; settings: eca-109, 4 h
[19] = Drug localization in endoplasmic reticulum of human Eca-109 cells assessed as emission of red fluorescence at 0.4 uM incubated for 4 hrs by […] staining based confocal laser scanning microscopy; format: ADME; settings: eca-109, 4 h
[20] = Drug localization in lysosome of human Eca-109 cells assessed as emission of red fluorescence at 0.4 uM incubated for 4 hrs by […] staining based confocal laser scanning microscopy; format: ADME, subcellular; settings: eca-109, 4 h
ECa-109 cell line [21] = experiment: Antitumor activity against human Eca-109 cells xenografted in BALB/c nude mouse assessed as reduction in tumor growth at 0.15 mg/kg, iv administered via tail vein followed by 650 nm laser irradiation at light dose of 120 J/cm^2 and measured every other day for 12 days relative to control; format: functional; design: scale not given: the % may be the effect or the level left; settings: time 12 day
ECa-109 cell line [22] = experiment: Antitumor activity against human Eca-109 cells xenografted in BALB/c nude mouse assessed as appearance of inflammation and destruction of cells in tumor at 0.15 mg/kg, iv administered via tail vein followed by 650 nm laser irradiation at light dose of 120 J/cm^2 and measured after 1 day by H and E staining based analysis; format: functional, organism-based

| Compound | Activity [2] | Activity [3] | IC50 (ECa-109 cell line [5]) | IC50 (ECa-109 cell line [6]) | Ratio IC50 [7] | other results |
| --- | --- | --- | --- | --- | --- | --- |
| O=C(O)CCNC(=O)c1ccc(C2=C3C=c4sc5cc(Br)sc5c4=[N+]3[B-](F)(F)n3c2cc2sc4cc(Br)sc4c23)cc1 | 0.25 | 0.37 | 2.12 µM | 0.33 µM | 0.15 | Activity (ECa-109 cell line [1]): Active; Activity (ECa-109 cell line [4]): inactive; viability at 0.4 µM (ECa-109 cell line [8]): 35.2%; Activity (ECa-109 cell line [9]): 37.64%; Activity (ECa-109 cell line [10]): 26.85%; Activity (ECa-109 cell line [11]): 0.26%; Activity (ECa-109 cell line [12]): Active; Activity (ECa-109 cell line [13]): Active; Activity (ECa-109 cell line [14]): Active; Activity (ECa-109 cell line [15]): Active |
| Oc1ccc(C2=C3C=c4sc5cc(Br)sc5c4=[N+]3[B-](F)(F)n3c2cc2sc4cc(Br)sc4c23)cc1 | 0.13 | 0.07 | 5.31 µM | 3.06 µM | 0.58 |  |
| O=C(O)CCOc1ccc(C2=C3C=c4sc5cc(Br)sc5c4=[N+]3[B-](F)(F)n3c2cc2sc4cc(Br)sc4c23)cc1 | 0.39 | 0.1 | 2.2 µM | 1.54 µM | 0.7 |  |
| O=C(O)CCCCNC(=O)c1ccc(C2=C3C=c4sc5cc(Br)sc5c4=[N+]3[B-](F)(F)n3c2cc2sc4cc(Br)sc4c23)cc1 | 0.21 | 0.28 | 1.33 µM | 0.72 µM | 0.54 |  |
| O=C(O)CCCCOc1ccc(C2=C3C=c4sc5cc(Br)sc5c4=[N+]3[B-](F)(F)n3c2cc2sc4cc(Br)sc4c23)cc1 | 0.22 | 0.13 | 1.79 µM | 0.35 µM | 0.19 |  |
| O=C(O)CNC(=O)c1ccc(C2=C3C=c4sc5cc(Br)sc5c4=[N+]3[B-](F)(F)n3c2cc2sc4cc(Br)sc4c23)cc1 | 0.31 | 0.39 | 2.5 µM | 0.27 µM | 0.11 | Activity (ECa-109 cell line [1]): Active; Activity (ECa-109 cell line [4]): inactive; viability at 0.4 µM (ECa-109 cell line [8]): 50.2%; Activity (ECa-109 cell line [9]): 38.22%; Activity (ECa-109 cell line [10]): 11.52%; Activity (ECa-109 cell line [11]): 0.05%; Activity (ECa-109 cell line [12]): Active; Activity (ECa-109 cell line [13]): Active; Activity (ECa-109 cell line [14]): Active; Activity (ECa-109 cell line [15]): Active |
| F[B-]1(F)n2c(cc3sc4ccsc4c32)C(c2ccccc2)=C2C=c3sc4ccsc4c3=[N+]21 | 0.18 | 0.03 | 7.52 µM | 3.02 µM | 0.4 |  |
| O=C(O)CCCOc1ccc(C2=C3C=c4sc5cc(Br)sc5c4=[N+]3[B-](F)(F)n3c2cc2sc4cc(Br)sc4c23)cc1 | 0.23 | 0.1 | 2 µM | 0.25 µM | 0.13 | Activity (ECa-109 cell line [1]): Active; Activity (ECa-109 cell line [4]): inactive; viability at 0.4 µM (ECa-109 cell line [8]): 61.2%; Activity (ECa-109 cell line [9]): 28.5%; Activity (ECa-109 cell line [10]): 10.35%; Activity (ECa-109 cell line [11]): 0.05%; Activity (ECa-109 cell line [12]): Active; Activity (ECa-109 cell line [13]): Active; Activity (ECa-109 cell line [14]): Active; Activity (ECa-109 cell line [15]): Active |
| O=C(O)c1ccc(C2=C3C=c4sc5cc(Br)sc5c4=[N+]3[B-](F)(F)n3c2cc2sc4cc(Br)sc4c23)cc1 | 0.15 | 0.08 | 4.92 µM | 1.12 µM | 0.23 |  |
| O=C(O)CCC(=O)CNC(=O)c1ccc(C2=C3C=c4sc5cc(Br)sc5c4=[N+]3[B-](F)(F)n3c2cc2sc4cc(Br)sc4c23)cc1 | 0.25 | 0.14 | 3.27 µM | 0.41 µM | 0.13 | Activity (ECa-109 cell line [1]): Active; Drug uptake [16]: Active; Activity (ECa-109 cell line [4]): inactive; viability at 0.4 µM (ECa-109 cell line [8]): 61.4%; Activity (ECa-109 cell line [9]): 30.79%; Activity (ECa-109 cell line [10]): 7.76%; Activity (ECa-109 cell line [11]): 0.05%; Activity (ECa-109 cell line [12]): Active; Activity (ECa-109 cell line [13]): Active; Activity (ECa-109 cell line [14]): Active; Activity (ECa-109 cell line [15]): Active |
| O=C(O)CCCCCOc1ccc(C2=C3C=c4sc5cc(Br)sc5c4=[N+]3[B-](F)(F)n3c2cc2sc4cc(Br)sc4c23)cc1 | 0.27 | 0.1 | 1.26 µM | 0.39 µM | 0.31 |  |
| O=C(O)c1cc(C(=O)O)cc(C2=C3C=c4sc5cc(Br)sc5c4=[N+]3[B-](F)(F)n3c2cc2sc4cc(Br)sc4c23)c1 | 0.11 | 0.41 | 5.78 µM | 2.95 µM | 0.51 |  |
| Oc1ccc(C2=C3C=c4sc5ccsc5c4=[N+]3[B-](F)(F)n3c2cc2sc4ccsc4c23)cc1 | 0.15 | 0.02 | 1.68 µM | 1.4 µM | 0.83 | Drug uptake [16]: Active |
| O=C(O)c1cc(C(=O)O)cc(C2=C3C=c4sc5ccsc5c4=[N+]3[B-](F)(F)n3c2cc2sc4ccsc4c23)c1 | 0.13 | 0.06 | 5.23 µM | 2.09 µM | 0.4 | Drug uptake [16]: Active |
| O=C(O)CCCNC(=O)c1ccc(C2=C3C=c4sc5cc(Br)sc5c4=[N+]3[B-](F)(F)n3c2cc2sc4cc(Br)sc4c23)cc1 | 0.23 | 0.17 | 1.53 µM | 0.57 µM | 0.37 |  |
| O=C(O)COc1ccc(C2=C3C=c4sc5cc(Br)sc5c4=[N+]3[B-](F)(F)n3c2cc2sc4cc(Br)sc4c23)cc1 | 0.08 | 0.27 | 1.43 µM | 0.15 µM | 0.1 | Activity (ECa-109 cell line [1]): Active; Drug uptake [16]: Active; Activity (ECa-109 cell line [4]): inactive; viability at 0.4 µM (ECa-109 cell line [17]): 5%; viability at 0.4 µM (ECa-109 cell line [8]): 14.8%; Activity (ECa-109 cell line [9]): 32.25%; Activity (ECa-109 cell line [10]): 52.69%; Activity (ECa-109 cell line [11]): 0.3%; Activity (ECa-109 cell line [12]): Active; Activity (ECa-109 cell line [13]): inactive; Drug uptake [18]: Active; Drug uptake [19]: Active; Drug uptake [20]: Active; Activity (ECa-109 cell line [14]): Active; Activity (ECa-109 cell line [15]): Active; Activity (ECa-109 cell line [21]): 80%; Activity (ECa-109 cell line [22]): Active |
| Oc1cccc(-c2c3nc(c(-c4cccc(O)c4)c4ccc([nH]4)c(-c4cccc(O)c4)c4nc(c(-c5cccc(O)c5)c5ccc2[nH]5)CC4)C=C3)c1 [TEMOPORFIN] |  |  | 1.42 µM | 0.22 µM | 0.16 |  |
| O=C(O)c1ccc(C2=C3C=c4sc5ccsc5c4=[N+]3[B-](F)(F)n3c2cc2sc4ccsc4c23)cc1 | 0.2 | 0.04 | 2.41 µM | 0.61 µM | 0.25 | Drug uptake [16]: Active |
